In the supplement of paper PMC10307832:

Legend:
Assay in all cases: relative viability (nuclei count vs DMSO), 5 days (fraction); higher = more cells survive
BI-D1870 + Foretinib = compound: CC(C)CCN1c2nc(Nc3cc(F)c(O)c(F)c3)ncc2N(C)C(=O)C1C [BI-D1870] + COc1cc2c(Oc3ccc(NC(=O)C4(C(=O)Nc5ccc(F)cc5)CC4)cc3F)ccnc2cc1OCCCN1CCOCC1 [Foretinib] (partner 0.25 µM)
Outline: (§1)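 Relative viability was taken as the ratio of nuclei in treated wells to nuclei in vehicle wells. Lung cancer cell lines in 1536-well plates received compounds by pin tool one day after seeding, either one drug alone or a fixed anchor-drug dose plus five library-drug doses (not always all listed) in √10 steps. Nuclei were counted on 4× images after 5 days of treatment, and values are medians of duplicate plates.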

Zebularine + Lapatinib = compound: O=c1ncccn1[C@@H]1O[C@H](CO)[C@@H](O)[C@H]1O [Zebularine] + CS(=O)(=O)CCNCc1ccc(-c2ccc3ncnc(Nc4ccc(OCc5cccc(F)c5)c(Cl)c4)c3c2)o1 [Lapatinib] (partner 2 µM)
Outline: as §1

Zebularine + Pemetrexed = compound: O=c1ncccn1[C@@H]1O[C@H](CO)[C@@H](O)[C@H]1O [Zebularine] + Nc1nc2[nH]cc(CCc3ccc(C(=O)N[C@@H](CCC(=O)O)C(=O)O)cc3)c2c(=O)[nH]1 [Pemetrexed] (partner 0.2 µM)
Outline: as §1

Zebularine + OSI-027 = compound: O=c1ncccn1[C@@H]1O[C@H](CO)[C@@H](O)[C@H]1O [Zebularine] + COc1cccc2cc(-c3nc([C@H]4CC[C@H](C(=O)O)CC4)n4ncnc(N)c34)[nH]c12 [OSI-027] (partner 0.5 µM)
Outline: as §1

Cell Line | relative viability (BI-D1870 + Foretinib; first compound 0.04 µM) | relative viability (BI-D1870 + Foretinib; first compound 0.1265 µM) | relative viability (BI-D1870 + Foretinib; first compound 0.4 µM) | relative viability (BI-D1870 + Foretinib; first compound 1.265 µM) | relative viability (BI-D1870 + Foretinib; first compound 4 µM) | relative viability (Zebularine + Lapatinib; first compound 1 µM) | relative viability (Zebularine + Lapatinib; first compound 3.162 µM) | relative viability (Zebularine + Lapatinib; first compound 31.62 µM) | relative viability (Zebularine + Lapatinib; first compound 100 µM) | relative viability (Zebularine + Pemetrexed; first compound 1 µM) | relative viability (Zebularine + Pemetrexed; first compound 3.162 µM) | relative viability (Zebularine + Pemetrexed; first compound 10 µM) | relative viability (Zebularine + Pemetrexed; first compound 31.62 µM) | relative viability (Zebularine + Pemetrexed; first compound 100 µM) | relative viability (Zebularine + OSI-027; first compound 1 µM) | relative viability (Zebularine + OSI-027; first compound 3.162 µM) | relative viability (Zebularine + OSI-027; first compound 10 µM) | relative viability (Zebularine + OSI-027; first compound 31.62 µM) | relative viability (Zebularine + OSI-027; first compound 100 µM) | relative viability (Zebularine + Lapatinib; first compound 10 µM)
CAL-12T | 1.29 | 0.831 | 1.11 | 1.23 | 0.889 | 0.757 | 0.658 | 0.701 | 0.633 | 1.43 | 1.1 | 0.914 | 1.18 | 0.47 | 0.816 | 0.552 | 0.387 | 0.688 | 0.542 | –
COR-L23 | 1.01 | 0.894 | 0.938 | 1.01 | 0.905 | 1.1 | 0.924 | 0.383 | 0.232 | 0.201 | 0.199 | 0.193 | 0.207 | 0.168 | 1.07 | 0.794 | 0.383 | 0.452 | 0.236 | 0.5
COR-L 105 | 1.29 | 1.12 | 1.1 | 1.47 | 1.12 | 0.388 | 0.367 | 0.361 | 0.364 | 1.26 | 1.06 | 0.987 | 1.24 | 0.824 | 0.763 | 0.642 | 0.566 | 0.697 | 0.684 | 0.362
EKVX | 1.3 | 0.593 | 0.619 | 0.935 | 0.371 | 0.218 | 0.182 | 0.211 | 0.184 | 0.396 | 0.431 | – | 0.433 | 0.397 | 0.679 | 0.644 | 0.617 | 0.749 | 0.695 | –
EMC-BAC-2 | 1.07 | 0.875 | 0.918 | 1.09 | 1.02 | 0.984 | 0.964 | 0.968 | 0.981 | 0.496 | 0.466 | 0.428 | 0.458 | 0.474 | 0.406 | 0.366 | 0.341 | 0.387 | 0.368 | 0.647
EPLC-272H | 0.786 | 0.539 | 0.602 | 0.612 | 0.508 | 0.935 | – | 0.992 | 0.598 | 0.36 | 0.331 | – | 0.342 | 0.264 | 0.279 | 0.213 | 0.312 | 0.324 | 0.27 | –
H3255 | 0.784 | 0.915 | 0.953 | 1.09 | 0.849 | 0.249 | 0.239 | 0.235 | 0.228 | 0.641 | 0.576 | 0.553 | 0.516 | 0.563 | 0.605 | 0.522 | 0.43 | 0.689 | 0.487 | 0.221
HARA | 0.872 | 0.855 | 0.867 | 0.819 | 1.02 | 0.731 | 0.906 | 0.896 | 1.02 | 0.295 | 0.253 | 0.214 | 0.324 | 0.307 | 0.367 | – | – | 0.42 | 0.245 | –
HCC-15 | 1.11 | 0.911 | 1 | 0.921 | 0.599 | 0.941 | 0.822 | 0.825 | 0.401 | 0.23 | 0.213 | 0.201 | 0.219 | 0.186 | 0.85 | 0.587 | 0.457 | 0.537 | 0.27 | 0.74
HCC-78 | 0.599 | 0.522 | 0.529 | 0.592 | 0.481 | 1.1 | 0.43 | 0.729 | 0.181 | 0.88 | 0.941 | – | 0.882 | 0.978 | 0.394 | 0.381 | 0.305 | 0.366 | 0.401 | 0.871
HCC-366 | 0.957 | 0.906 | 0.932 | 0.896 | 0.943 | 1.22 | 0.984 | 0.749 | 0.0986 | 0.168 | 0.179 | 0.136 | 0.192 | 0.0894 | 1.02 | 0.831 | 0.558 | 0.807 | 0.253 | 0.329
HCC-827 | 1.05 | 0.968 | 0.967 | 1.06 | 1.03 | 0.209 | 0.175 | 0.188 | 0.191 | 0.328 | 0.254 | 0.229 | 0.243 | 0.235 | 1.06 | 0.779 | 0.675 | 0.609 | 0.366 | 0.192
HOP-62 | 1.27 | 1.03 | 1.07 | 1.06 | 0.924 | 1.07 | 0.783 | 0.368 | 0.144 | 0.326 | 0.316 | 0.239 | 0.186 | 0.139 | 0.945 | 0.745 | 0.493 | 0.465 | 0.319 | 0.467
LC-2-ad | 1.01 | 0.932 | 0.946 | 0.975 | 0.626 | 1.05 | 0.886 | 0.584 | 0.168 | 0.276 | 0.289 | 0.27 | 0.255 | 0.259 | 0.858 | 0.559 | 0.546 | 0.573 | 0.529 | 0.722
LCLC-97TM1 | 1.1 | 0.975 | 0.893 | 1.09 | 0.843 | 0.784 | 0.665 | 0.376 | 0.139 | 0.167 | 0.172 | 0.13 | 0.146 | 0.0657 | 0.572 | 0.533 | 0.258 | 0.198 | 0.213 | 0.451
LK-2 | 1.32 | 1.13 | 1.34 | 1.51 | 1.6 | 0.947 | 1.04 | 0.539 | 0.283 | 0.321 | 0.298 | 0.173 | 0.253 | 0.131 | 0.187 | 0.181 | 0.195 | 0.202 | 0.162 | 0.584
